Measurements published in patent publication US5288720A, “Angiotensin II receptor blocking 2,3,6 substituted quinazolinones” (American Cyanamid Company, priority 1993, dated 1994).

Tested on: ANGIOTENSIN II VASOPRESSOR RESPONSE
Experiment: AII Challenge: blockade of angiotensin II vasopressor response in conscious SHR
Assay type: in vivo, rat (Conscious Male Okamoto-Aoki SHR)
Details: SHR n=2
Procedure, shortened: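 Percent blockade is derived from the systolic pressure rise in mmHg, taking each rat's own predose response as 100%. Rats were conscious male Okamoto-Aoki SHR, 16-20 weeks, ~330 g, with aortic and caval cannulas under local procaine. Compound went i.v., i.p. or orally, then angiotensin II challenges (0.05 and 0.1 ug/kg i.v.) at 30-300 min.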

[1] = 3 mg/kg p.o., AII 0.05 mcg/kg IV, 30 min post dose
[2] = 3 mg/kg p.o., AII 0.05 mcg/kg IV, 60 min post dose
[3] = 3 mg/kg p.o., AII 0.05 mcg/kg IV, 90 min post dose
[4] = 3 mg/kg p.o., AII 0.05 mcg/kg IV, 120 min post dose
[5] = 3 mg/kg p.o., AII 0.05 mcg/kg IV, 180 min post dose
[6] = 3 mg/kg p.o., AII 0.05 mcg/kg IV, 240 min post dose
[7] = 3 mg/kg p.o., AII 0.1 mcg/kg IV, 30 min post dose
[8] = 3 mg/kg p.o., AII 0.1 mcg/kg IV, 60 min post dose
[9] = 3 mg/kg p.o., AII 0.1 mcg/kg IV, 90 min post dose
[10] = 3 mg/kg p.o., AII 0.1 mcg/kg IV, 120 min post dose
[11] = 3 mg/kg p.o., AII 0.1 mcg/kg IV, 180 min post dose
[12] = 3 mg/kg p.o., AII 0.1 mcg/kg IV, 240 min post dose
[13] = 10 mg/kg p.o., AII 0.05 mcg/kg IV, 30 min post dose
[14] = 10 mg/kg p.o., AII 0.05 mcg/kg IV, 60 min post dose
[15] = 10 mg/kg p.o., AII 0.05 mcg/kg IV, 90 min post dose
[16] = 10 mg/kg p.o., AII 0.05 mcg/kg IV, 120 min post dose
[17] = 10 mg/kg p.o., AII 0.05 mcg/kg IV, 180 min post dose
[18] = 10 mg/kg p.o., AII 0.05 mcg/kg IV, 240 min post dose
[19] = 10 mg/kg p.o., AII 0.05 mcg/kg IV, 300 min post dose
[20] = 10 mg/kg p.o., AII 0.1 mcg/kg IV, 30 min post dose
[21] = 10 mg/kg p.o., AII 0.1 mcg/kg IV, 60 min post dose
[22] = 10 mg/kg p.o., AII 0.1 mcg/kg IV, 90 min post dose
[23] = 10 mg/kg p.o., AII 0.1 mcg/kg IV, 120 min post dose
[24] = 10 mg/kg p.o., AII 0.1 mcg/kg IV, 180 min post dose
[25] = 10 mg/kg p.o., AII 0.1 mcg/kg IV, 240 min post dose
[26] = 10 mg/kg p.o., AII 0.1 mcg/kg IV, 300 min post dose
[27] = 3 mg/kg i.v., AII 0.05 mcg/kg IV, 30 min post dose
[28] = 3 mg/kg i.v., AII 0.05 mcg/kg IV, 60 min post dose
[29] = 3 mg/kg i.v., AII 0.05 mcg/kg IV, 90 min post dose
[30] = 3 mg/kg i.v., AII 0.05 mcg/kg IV, 120 min post dose
[31] = 3 mg/kg i.v., AII 0.05 mcg/kg IV, 180 min post dose
[32] = 3 mg/kg i.v., AII 0.05 mcg/kg IV, 240 min post dose
[33] = 3 mg/kg i.v., AII 0.05 mcg/kg IV, 300 min post dose
[34] = 3 mg/kg i.v., AII 0.1 mcg/kg IV, 30 min post dose
[35] = 3 mg/kg i.v., AII 0.1 mcg/kg IV, 60 min post dose
[36] = 3 mg/kg i.v., AII 0.1 mcg/kg IV, 90 min post dose
[37] = 3 mg/kg i.v., AII 0.1 mcg/kg IV, 120 min post dose
[38] = 3 mg/kg i.v., AII 0.1 mcg/kg IV, 180 min post dose
[39] = 3 mg/kg i.v., AII 0.1 mcg/kg IV, 240 min post dose
[40] = 3 mg/kg i.v., AII 0.1 mcg/kg IV, 300 min post dose

## CCCCc1nc2ccc(C(O)C3CCCN(C)C3=O)cc2c(=O)n1Cc1ccc(-c2ccccc2-c2nn[nH]n2)cc1 (single isomer, unassigned; isomer 2) [Example 38, 2-Butyl-6-hydroxy(1-methyl-2-oxo-3-piperidinyl)methyl-3-[[2'-(1H-tetrazol-5-yl)[1,1'-biphenyl]-4-yl]methyl-4(3H)-quinazolinone isomer 2]
[1]
  % Inhibition of AII vasopressor response: 70%
  Average Change (systolic blood pressure response to AII): 7.5 mmHg
[2]
  % Inhibition of AII vasopressor response: 50%
  Average Change (systolic blood pressure response to AII): 12.5 mmHg
[3]
  % Inhibition of AII vasopressor response: 46%
  Average Change (systolic blood pressure response to AII): 13.5 mmHg
[4]
  % Inhibition of AII vasopressor response: 70%
  Average Change (systolic blood pressure response to AII): 7.5 mmHg
[5]
  % Inhibition of AII vasopressor response: 70%
  Average Change (systolic blood pressure response to AII): 7.5 mmHg
[6]
  % Inhibition of AII vasopressor response: 40%
  Average Change (systolic blood pressure response to AII): 15 mmHg
[7]
  % Inhibition of AII vasopressor response: 57%
  Average Change (systolic blood pressure response to AII): 15 mmHg
[8]
  % Inhibition of AII vasopressor response: 20%
  Average Change (systolic blood pressure response to AII): 27.5 mmHg
[9]
  % Inhibition of AII vasopressor response: 32%
  Average Change (systolic blood pressure response to AII): 23.5 mmHg
[10]
  % Inhibition of AII vasopressor response: 52%
  Average Change (systolic blood pressure response to AII): 16.5 mmHg
[11]
  % Inhibition of AII vasopressor response: 28%
  Average Change (systolic blood pressure response to AII): 25 mmHg
[12]
  % Inhibition of AII vasopressor response: 16%
  Average Change (systolic blood pressure response to AII): 29 mmHg
[13]
  % Inhibition of AII vasopressor response: 50%
  Average Change (systolic blood pressure response to AII): 25 mmHg
[14]
  % Inhibition of AII vasopressor response: 40%
  Average Change (systolic blood pressure response to AII): 30 mmHg
[15]
  % Inhibition of AII vasopressor response: 25%
  Average Change (systolic blood pressure response to AII): 37.5 mmHg
[16]
  % Inhibition of AII vasopressor response: 50%
  Average Change (systolic blood pressure response to AII): 25 mmHg
[17]
  % Inhibition of AII vasopressor response: 5%
  Average Change (systolic blood pressure response to AII): 47.5 mmHg
[18]
  % Inhibition of AII vasopressor response: -5%
  Average Change (systolic blood pressure response to AII): 52.5 mmHg
[19]
  % Inhibition of AII vasopressor response: 0%
  Average Change (systolic blood pressure response to AII): 50 mmHg
[20]
  % Inhibition of AII vasopressor response: 35%
  Average Change (systolic blood pressure response to AII): 37.5 mmHg
[21]
  % Inhibition of AII vasopressor response: 39%
  Average Change (systolic blood pressure response to AII): 35 mmHg
[22]
  % Inhibition of AII vasopressor response: 35%
  Average Change (systolic blood pressure response to AII): 37.5 mmHg
[23]
  % Inhibition of AII vasopressor response: 43%
  Average Change (systolic blood pressure response to AII): 32.5 mmHg
[24]
  % Inhibition of AII vasopressor response: 13%
  Average Change (systolic blood pressure response to AII): 50 mmHg
[25]
  % Inhibition of AII vasopressor response: 22%
  Average Change (systolic blood pressure response to AII): 45 mmHg
[26]
  % Inhibition of AII vasopressor response: 4%
  Average Change (systolic blood pressure response to AII): 55 mmHg

## CCCCc1nc2ccc(C(OC)C3CCCO3)cc2c(=O)n1Cc1ccc(-c2ccccc2-c2nn[nH]n2)cc1 (single isomer, unassigned) [Example 24]
[27]
  % Inhibition of AII vasopressor response: 100%
  Average Change (systolic blood pressure response to AII): 0 mmHg
[28]
  % Inhibition of AII vasopressor response: 93%
  Average Change (systolic blood pressure response to AII): 2.5 mmHg
[29]
  % Inhibition of AII vasopressor response: 93%
  Average Change (systolic blood pressure response to AII): 2.5 mmHg
[30]
  % Inhibition of AII vasopressor response: 87%
  Average Change (systolic blood pressure response to AII): 5 mmHg
[31]
  % Inhibition of AII vasopressor response: 80%
  Average Change (systolic blood pressure response to AII): 7.5 mmHg
[32]
  % Inhibition of AII vasopressor response: 80%
  Average Change (systolic blood pressure response to AII): 7.5 mmHg
[33]
  % Inhibition of AII vasopressor response: 83%
  Average Change (systolic blood pressure response to AII): 6.5 mmHg
[34]
  % Inhibition of AII vasopressor response: 100%
  Average Change (systolic blood pressure response to AII): 0 mmHg
[35]
  % Inhibition of AII vasopressor response: 87%
  Average Change (systolic blood pressure response to AII): 5 mmHg
[36]
  % Inhibition of AII vasopressor response: 87%
  Average Change (systolic blood pressure response to AII): 5 mmHg
[37]
  % Inhibition of AII vasopressor response: 100%
  Average Change (systolic blood pressure response to AII): 0 mmHg
[38]
  % Inhibition of AII vasopressor response: 81%
  Average Change (systolic blood pressure response to AII): 7.5 mmHg
[39]
  % Inhibition of AII vasopressor response: 62%
  Average Change (systolic blood pressure response to AII): 15 mmHg
[40]
  % Inhibition of AII vasopressor response: 59%
  Average Change (systolic blood pressure response to AII): 16 mmHg
[1]
  % Inhibition of AII vasopressor response: 64%
  Average Change (systolic blood pressure response to AII): 17.5 mmHg
[2]
  % Inhibition of AII vasopressor response: 54%
  Average Change (systolic blood pressure response to AII): 22.5 mmHg
[3]
  % Inhibition of AII vasopressor response: 48%
  Average Change (systolic blood pressure response to AII): 25 mmHg
[4]
  % Inhibition of AII vasopressor response: 54%
  Average Change (systolic blood pressure response to AII): 22.5 mmHg
[5]
  % Inhibition of AII vasopressor response: 20%
  Average Change (systolic blood pressure response to AII): 39 mmHg
[6]
  % Inhibition of AII vasopressor response: 12%
  Average Change (systolic blood pressure response to AII): 42.5 mmHg
[7]
  % Inhibition of AII vasopressor response: 57%
  Average Change (systolic blood pressure response to AII): 22.5 mmHg
[8]
  % Inhibition of AII vasopressor response: 38%
  Average Change (systolic blood pressure response to AII): 32.5 mmHg
[9]
  % Inhibition of AII vasopressor response: 33%
  Average Change (systolic blood pressure response to AII): 35 mmHg
[10]
  % Inhibition of AII vasopressor response: 29%
  Average Change (systolic blood pressure response to AII): 37.5 mmHg
[11]
  % Inhibition of AII vasopressor response: 29%
  Average Change (systolic blood pressure response to AII): 37.5 mmHg
[12]
  % Inhibition of AII vasopressor response: 24%
  Average Change (systolic blood pressure response to AII): 40 mmHg
